Data from patent publication US9951077B2, “Aminopyridazinone compounds as protein kinase inhibitors” (ETERNITY BIOSCIENCE INC., priority 2014, dated 2018).
Where two headings read alike, the source gives them in different places.

Key:
[1] = tested on: TMD-8 cells; test: Cell proliferation assay (CellTiter-Glo), TMD-8 cells; type: cell-based; conditions: 5-day treatment, read-out: TMD8 cells growth IC50
Experimental: TMD-8 and SU-DHL-1 cells were maintained at 37° C. in a humidified atmosphere with 5% CO2 in the recommended medium and serum concentrations. For cell proliferation assay, cells were seeded in 96-well pates at a density of 5,000 to 10,000 cells per well and cultured overnight at 37° C. in recommended medium supplemented with 5-10% FBS. On the next day, the test articles at various concentrations or vehicle control (0.5% DMSO) were added into cell culture. After 5-day treatment, the growth of cells was assayed by the CellTiter-Glo® Luminestceaent Cell Viability Assay (Promega). IC50 values were calculated using GraphPad Prism by plotting the logarithm of the concentration versus percent inhibition of cell growth as compared with the vehicle control.

[2] = target: Btk (Homo sapiens (Human), UniProt Q06187); test: Btk kinase assay (ADP-Glo); type: biochemical; conditions: ATP 1.2 μM, 60 minutes, room temperature; read-out: BTK enzyme IC50
Btk, sequence (Q06187 whole entry): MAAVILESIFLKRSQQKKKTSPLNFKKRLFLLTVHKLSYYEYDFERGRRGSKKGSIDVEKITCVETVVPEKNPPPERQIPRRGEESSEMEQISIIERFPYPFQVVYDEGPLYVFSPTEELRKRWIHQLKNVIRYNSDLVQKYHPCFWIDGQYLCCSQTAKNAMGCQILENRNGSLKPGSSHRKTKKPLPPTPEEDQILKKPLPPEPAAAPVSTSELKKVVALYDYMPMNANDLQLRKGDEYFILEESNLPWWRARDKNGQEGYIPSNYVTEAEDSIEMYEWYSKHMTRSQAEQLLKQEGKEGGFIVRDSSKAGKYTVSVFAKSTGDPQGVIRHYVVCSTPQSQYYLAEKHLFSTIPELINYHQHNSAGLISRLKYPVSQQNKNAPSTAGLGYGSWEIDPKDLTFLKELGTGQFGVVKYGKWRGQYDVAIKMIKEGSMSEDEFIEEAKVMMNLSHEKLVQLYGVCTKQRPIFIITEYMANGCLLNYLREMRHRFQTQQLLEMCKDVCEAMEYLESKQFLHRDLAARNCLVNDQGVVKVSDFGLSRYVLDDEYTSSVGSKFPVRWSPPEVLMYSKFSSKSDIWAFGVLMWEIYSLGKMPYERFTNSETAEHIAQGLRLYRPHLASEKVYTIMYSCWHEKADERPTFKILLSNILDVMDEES
Method in brief: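 Recombinant human Btk (2 ng/μl) with poly GT peptide (0.3 μM), ATP (1.2 μM), MnCl2 (1.4 mM) and DTT (40 nM), 60 min at room temperature (22±1° C.). ADP formed was read by ADP-Glo luminescence after ATP depletion. IC50 from log concentration versus percent inhibition relative to DMSO vehicle.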

Molecule | IC50 [2] | IC50 [1] | IC50 ([1]; Homo sapiens, TMD8, 120 h)
CN(C/C=C/C(=O)N1CCC[C@@H](n2cc(-c3ccc(Oc4ccccc4)cc3)c3c(N)n[nH]c(=O)c32)C1)C1CCCCC1 [Example 32, 4-amino-1-[(3R)-1-[(E)-4-[cyclohexyl(methyl)amino]but-2-enoyl]-3-piperidyl]-3-(4-phenoxyphenyl)-6H-pyrrolo[2,3-d]pyridazin-7-one] | 10 to 1000 nM | 10 to 1000 nM | 
CN1CCN(C/C=C/C(=O)N2CCC[C@@H](n3cc(-c4ccc(Oc5ccccc5)cc4)c4c(N)n[nH]c(=O)c43)C2)CC1 [Example 36, 4-amino-1-[(3R)-1-[(E)-4-(4-methylpiperazin-1-yl)but-2-enoyl]-3-piperidyl]-3-(4-phenoxyphenyl)-6H-pyrrolo[2,3-d]pyridazin-7-one] | ≤ 10 nM | 10 to 1000 nM | 
CN(C)C/C=C/C(=O)NC1C2CCC1CC(n1cc(-c3ccc(Oc4ccccc4)cc3)c3c(N)n[nH]c(=O)c31)C2 (centres unmarked) [Example 48, (E)-N-[3-[4-amino-7-oxo-3-(4-phenoxyphenyl)-6H-pyrrolo[2,3-d]pyridazin-1-yl]-8-bicyclo[3.2.1]octanyl]-4-(dimethylamino)but-2-enamide] | 10 to 1000 nM |  | 10 to 1000 nM
CC#CC(=O)N1CC[C@@H](n2cc(-c3ccc(Oc4c(F)cccc4Cl)cc3)c3c(N)n[nH]c(=O)c32)C1 [Example 94, (R)-4-amino-1-(1-(but-2-ynoyl)pyrrolidin-3-yl)-3-(4-(2-chloro-6-fluorophenoxy)phenyl)-1H-pyrrolo[2,3-d]pyridazin-7(6H)-one] | 10 to 1000 nM |  | 
CN(C)C/C=C/C(=O)N1CCC(n2cc(-c3ccc(Oc4ccccc4)cc3)c3c(N)n[nH]c(=O)c32)CC1 [Example 44, 4-amino-1-[1-[(E)-4-(dimethylamino)but-2-enoyl]-4-piperidyl]-3-(4-phenoxyphenyl)-6H-pyrrolo[2,3-d]pyridazin-7-one] | 10 to 1000 nM |  | 
CN(C)C/C=C/C(=O)N1CCC(Cn2cc(-c3ccc(Oc4ccccc4)cc3)c3c(N)n[nH]c(=O)c32)C1 (centres unmarked) [Example 43, 4-amino-1-[[1-[(E)-4-(dimethylamino)but-2-enoyl]pyrrolidin-3-yl]methyl]-3-(4-phenoxyphenyl)-6H-pyrrolo[2,3-d]pyridazin-7-one] | 10 to 1000 nM |  | 
C=CC(=O)N1CCC(Cn2cc(-c3ccc(Oc4ccccc4)cc3)c3c(N)n[nH]c(=O)c32)CC1 [Example 10, 4-amino-3-(4-phenoxyphenyl)-1-[(1-prop-2-enoyl-4-piperidyl)methyl]-6H-pyrrolo[2,3-d]pyridazin-7-one] | 10 to 1000 nM |  | 
C=CC(=O)N1CC[C@H](n2cc(-c3ccc(Oc4ccccc4)cc3)c3c(N)n[nH]c(=O)c32)C1 [Example 3, 4-amino-3-(4-phenoxyphenyl)-1-[(3S)-1-prop-2-enoylpyrrolidin-3-yl]-6H-pyrrolo[2,3-d]pyridazin-7-one] | 10 to 1000 nM |  | 
C=CC(=O)Nc1cccc(-n2cc(-c3ccc(OC)c(Cl)c3)c3c(N)n[nH]c(=O)c32)c1 [Example 89, N-(3-(4-amino-3-(3-chloro-4-methoxyphenyl)-7-oxo-6,7-dihydro-1H-pyrrolo[2,3-d]pyridazin-1-yl)phenyl)acrylamide] | 10 to 1000 nM |  | 
CN(C/C=C/C(=O)N1CCC[C@@H](n2cc(-c3ccc(Oc4ccccc4)cc3)c3c(N)n[nH]c(=O)c32)C1)C(=O)OC(C)(C)C [Example 17, tert-butyl N-[(E)-4-[(3R)-3-[4-amino-7-oxo-3-(4-phenoxyphenyl)-6H-pyrrolo[2,3-d]pyridazin-1-yl]-1-piperidyl]-4-oxo-but-2-enyl]-N-methyl-carbamate] | 10 to 1000 nM |  | 
CC#CC(=O)N1CC[C@@H](n2cc(-c3ccc(Oc4ccccc4)cc3)c3c(N)n[nH]c(=O)c32)C1 [Example 97, (R)-4-amino-1-(1-(but-2-ynoyl)pyrrolidin-3-yl)-3-(4-phenoxyphenyl)-1H-pyrrolo[2,3-d]pyridazin-7(6H)-one] | 10 to 1000 nM |  | 

Now from value to molecule, other results behind:

IC50 [2] | Molecule | IC50 [1] | IC50 ([1]; Homo sapiens, TMD8, 120 h)
10 to 1000 nM | CN(C)C/C=C/C(=O)NC1CCC(n2cc(-c3ccc(Oc4ccccc4)cc3)c3c(N)n[nH]c(=O)c32)CC1 (centres unmarked) [Example 46, (E)-N-[4-[4-amino-7-oxo-3-(4-phenoxyphenyl)-6H-pyrrolo[2,3-d]pyridazin-1-yl]cyclohexyl]-4-(dimethylamino)but-2-enamide] |  | 10 to 1000 nM
≤ 10 nM | 4-amino-3-(4-phenoxyphenyl)-1-(1- prop-2-enoyl-3-piperidyl)-6H- pyrazolo[3,4-d]pyridazin-7-one [Example 2] | ≤ 10 nM | 
10 to 1000 nM | CC#CC(=O)N1CC[C@@H](n2nc(-c3ccc(Oc4ccccc4F)cc3)c3c(N)n[nH]c(=O)c32)C1 [Example 112, (R)-4-amino-1-(1-(but-2-ynoyl)pyrrolidin-3-yl)-3-(4-(2-fluorophenoxy)phenyl)-1H-pyrazolo[3,4-d]pyridazin-7(6H)-one] |  | ≤ 10 nM
≤ 10 nM | CN(C)C/C=C/C(=O)N1CC(Cn2cc(-c3ccc(Oc4ccccc4)cc3)c3c(N)n[nH]c(=O)c32)C1 [Example 47, 4-amino-1-[[1-[(E)-4-(dimethylamino)but-2-enoyl]azetidin-3-yl]methyl]-3-(4-phenoxyphenyl)-6H-pyrrolo[2,3-d]pyridazin-7-one] |  | ≤ 10 nM
≤ 10 nM | CN(C)C/C=C/C(=O)N1CCC(F)C(n2cc(-c3ccc(Oc4ccccc4)cc3)c3c(N)n[nH]c(=O)c32)C1 (centres unmarked) [Example 45, 4-amino-1-[1-[(E)-4-(dimethylamino)but-2-enoyl]-4-fluoro-3-piperidyl]-3-(4-phenoxyphenyl)-6H-pyrrolo[2,3-d]pyridazin-7-one] |  | ≤ 10 nM
≤ 10 nM | CC(C)N(C)C/C=C/C(=O)N1CCC[C@@H](n2cc(-c3ccc(Oc4ccccc4)cc3)c3c(N)n[nH]c(=O)c32)C1 [Example 16, 4-amino-1-[(3R)-1-[(E)-4-[isopropyl(methyl)amino]but-2-enoyl]-3-piperidyl]-3-(4-phenoxyphenyl)-6H-pyrrolo[2,3-d]pyridazin-7-one] |  | 
10 to 1000 nM | CC#CC(=O)N1CC[C@@H](n2cc(-c3ccc(Oc4ccccc4F)cc3)c3c(N)n[nH]c(=O)c32)C1 [Example 95, (R)-4-amino-1-(1-(but-2-ynoyl)pyrrolidin-3-yl)-3-(4-(2-fluorophenoxy)phenyl)-1H-pyrrolo[2,3-d]pyridazin-7(6H)-one] |  | 
10 to 1000 nM | C=CC(=O)N1CCCC(n2cc(-c3ccc(Oc4cccc(Cl)c4)c(OC)c3)c3c(N)n[nH]c(=O)c32)C1 (centres unmarked) [Example 68, 1-(1-acryloylpiperidin-3-yl)-4-amino-3-(4-(3-chlorophenoxy)-3-methoxyphenyl)-1H-pyrrolo[2,3-d]pyridazin-7(6H)-one] |  | 
10 to 1000 nM | C=CC(=O)N1CC(n2cc(-c3ccc(Oc4ccccc4)cc3)c3c(N)n[nH]c(=O)c32)C1 [Example 5, 4-amino-3-(4-phenoxyphenyl)-1-(1-prop-2-enoylazetidin-3-yl)-6H-pyrrolo[2,3-d]pyridazin-7-one] |  | 
≤ 10 nM | CN(C)C/C=C/C(=O)N1CCC[C@@H](n2cc(-c3ccc(Oc4ccccc4)cc3F)c3c(N)n[nH]c(=O)c32)C1 [Example 77, 4-amino-1-[(3R)-1-[(E)-4-(dimethylamino)but-2-enoyl]-3-piperidyl]-3-(2-fluoro-4-phenoxy-phenyl)-6H-pyrrolo[2,3-d]pyridazin-7-one] |  | 
≤ 10 nM | Nc1n[nH]c(=O)c2c1c(-c1ccc(Oc3ccccc3)cc1)cn2[C@@H]1CCCN(C(=O)/C=C/CN2CCOCC2)C1 [Example 35, 4-amino-1-[(3R)-1-[(E)-4-morpholinobut-2-enoyl]-3-piperidyl]-3-(4-phenoxyphenyl)-6H-pyrrolo[2,3-d]pyridazin-7-one] |  | 
1000 to 100000 nM | CN(C)C/C=C/C(=O)N1CCC[C@@H]1Cn1cc(-c2ccc(Oc3ccccc3)cc2)c2c(N)n[nH]c(=O)c21 [Example 42, 4-amino-1-[[(2R)-1-[(E)-4-(dimethylamino)but-2-enoyl]pyrrolidin-2-yl]methyl]-3-(4-phenoxyphenyl)-6H-pyrrolo[2,3-d]pyridazin-7-one] |  | 
10 to 1000 nM | CCN(C/C=C/C(=O)N1CCC[C@@H](n2cc(-c3ccc(Oc4ccccc4)cc3)c3c(N)n[nH]c(=O)c32)C1)C1CC1 [Example 30, 4-amino-1-[(3R)-1-[(E)-4-[cyclopropyl(ethyl)amino]but-2-enoyl]-3-piperidyl]-3-(4-phenoxyphenyl)-6H-pyrrolo[2,3-d]pyridazin-7-one] |  | 
1000 to 100000 nM | C=CC(=O)N1CCC(n2cc(-c3ccc(Oc4ccccc4)cc3)c3c(N)n[nH]c(=O)c32)CC1 [Example 9, 4-amino-3-(4-phenoxyphenyl)-1-(1-prop-2-enoyl-4-piperidyl)-6H-pyrrolo[2,3-d]pyridazin-7-one] |  | 
≤ 10 nM | COc1cc(-c2cn(C3CCCN(C(=O)/C=C/CN(C)C)C3)c3c(=O)[nH]nc(N)c23)ccc1Oc1cccc(Cl)c1 (centres unmarked) [Example 69, 4-amino-3-[4-(3-chlorophenoxy)-3-methoxy-phenyl]-1-[1-[(E)-4-(dimethylamino)but-2-enoyl]-3-piperidyl]-6H-pyrrolo[2,3-d]pyridazin-7-one] |  | 
≤ 10 nM | Nc1n[nH]c(=O)c2c1c(-c1ccc(Oc3ccccc3)cc1)cn2[C@@H]1CCCN(C(=O)/C=C/CNC2CC2)C1 [Example 28, 4-amino-1-[(3R)-1-[(E)-4-(cyclopropylamino)but-2-enoyl]-3-piperidyl]-3-(4-phenoxyphenyl)-6H-pyrrolo[2,3-d]pyridazin-7-one] |  | 
